Where “and” joins values, the source holds several entries; their conditions need not be identical. Equal entries are not always repeated. Toxic doses and inconclusive results are not listed.
Test system: BDF1 mice, P388 leukemia ip, median survival T/C
Test: NCI In Vivo Anticancer Drug Screen. Data for tumor model P388 Leukemia (intraperitoneal) in B6D2F1 (BDF1) mice
Details: endpoint: median survival time, higher = longer survival
Summary of the method: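 Reported as T/C, where T is the survival measurement in dosed animals and C the same measurement in vehicle controls.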

[1] = dose: 50.0 mg/kg/injection, schedule: Q04DX003 (ip), vehicle: saline with Tween-80
[2] = dose: 100.0 mg/kg/injection, schedule: Q04DX003 (ip), vehicle: saline with Tween-80
[3] = dose: 200.0 mg/kg/injection, schedule: Q04DX003 (ip), vehicle: saline with Tween-80
[4] = dose: 200.0 mg/kg/injection, schedule: Q01DX009 (ip), vehicle: saline with Tween-80
[5] = dose: 400.0 mg/kg/injection, schedule: Q01DX009 (ip), vehicle: saline with Tween-80

For `CCCCCCCCCCCCCCCC(=O)OCC1OC(n2ccc(N)nc2=O)C(O)C1O` (centres undefined), the T/C (dose: 0.38 mg/kg/injection, schedule: Q04DX003 (ip), vehicle: saline with Tween-80) was 111 % of control, the T/C (dose: 0.88 mg/kg/injection, schedule: Q04DX003 (ip), vehicle: saline with Tween-80) was 109 % of control and the T/C (dose: 1.5 mg/kg/injection, schedule: Q04DX003 (ip), vehicle: saline with Tween-80) was 152 % of control. For the same compound, the T/C (dose: 2.0 mg/kg/injection, schedule: Q04DX003 (ip), vehicle: saline with Tween-80) was 154 % of control, the T/C (dose: 3.0 mg/kg/injection, schedule: Q04DX003 (ip), vehicle: saline with Tween-80) was 181 % of control and 189 % of control and the T/C (dose: 3.13 mg/kg/injection, schedule: Q01DX009 (ip), vehicle: saline with Tween-80) was 272 % of control and 215 % of control. For the same compound, the T/C (dose: 6.25 mg/kg/injection, schedule: Q01DX009 (ip), vehicle: saline with Tween-80) was 250 % of control and 322 % of control, the T/C (dose: 7.5 mg/kg/injection, schedule: Q01DX009 (ip), vehicle: saline with Tween-80) was 186 % of control and the T/C (dose: 12.5 mg/kg/injection, schedule: Q01DX009 (ip), vehicle: saline with Tween-80) was 300 % of control and 333 % of control. For the same compound, the T/C (dose: 15.0 mg/kg/injection, schedule: Q01DX009 (ip), vehicle: saline with Tween-80) was 190 % of control, the T/C (dose: 22.0 mg/kg/injection, schedule: Q01DX009 (ip), vehicle: saline with Tween-80) was 272 % of control and the T/C (dose: 25.0 mg/kg/injection, schedule: Q01DX009 (ip), vehicle: saline with Tween-80) was 266 % of control and 300 % of control. The T/C (dose: 25.0 mg/kg/injection, schedule: Q04DX003 (ip), vehicle: saline with Tween-80) was 109 % of control, the T/C (dose: 30.0 mg/kg/injection, schedule: Q01DX009 (ip), vehicle: saline with Tween-80) was 104 % of control and the T/C (dose: 30.25 mg/kg/injection, schedule: Q01DX001 (ip), vehicle: Klucel (hydroxypropylcellulose) (HPC)) was 214 % of control. For the same compound, the T/C (dose: 31.75 mg/kg/injection, schedule: Q04DX002 (ip), vehicle: Klucel (hydroxypropylcellulose) (HPC)) was 265 % of control and 204 % of control, the T/C (dose: 40.0 mg/kg/injection, schedule: Q01DX001 (ip), vehicle: saline with Tween-80) was 171 % of control and the T/C (dose: 44.0 mg/kg/injection, schedule: Q04DX003 (ip), vehicle: saline sonified) was 275 % of control. For the same compound, the T/C (dose: 50.0 mg/kg/injection, schedule: Q01DX009 (ip), vehicle: saline with Tween-80) was 90 % of control, the T/C [1] was 195 % of control and the T/C (dose: 60.0 mg/kg/injection, schedule: Q01DX001 (ip), vehicle: saline with Tween-80) was 188 % of control. For the same compound, the T/C (dose: 62.5 mg/kg/injection, schedule: Q04DX002 (ip), vehicle: Klucel (hydroxypropylcellulose) (HPC)) was 241 % of control and 265 % of control, the T/C (dose: 66.0 mg/kg/injection, schedule: Q04DX003 (ip), vehicle: saline sonified) was 300 % of control and the T/C (dose: 90.0 mg/kg/injection, schedule: Q01DX001 (ip), vehicle: saline with Tween-80) was 197 % of control. The T/C (dose: 90.0 mg/kg/injection, schedule: Q04DX003 (ip), vehicle: saline with Tween-80) was 231 % of control (2×) and 217 % of control, the T/C (dose: 100.0 mg/kg/injection, schedule: Q01DX001 (ip), vehicle: saline) was 206 % of control and the T/C (dose: 100.0 mg/kg/injection, schedule: Q04DX003 (ip), vehicle: saline sonified) was 300 % of control. The T/C [2] was 300 % of control and 168 % of control, the T/C (dose: 125.0 mg/kg/injection, schedule: Q01DX001 (ip), vehicle: saline with Tween-80) was 392 % of control and the T/C (dose: 125.0 mg/kg/injection, schedule: Q04DX002 (ip), vehicle: Klucel (hydroxypropylcellulose) (HPC)) was 265 % of control. The T/C (dose: 150.0 mg/kg/injection, schedule: Q01DX001 (ip), vehicle: saline) was 318 % of control, the T/C (dose: 150.0 mg/kg/injection, schedule: Q04DX003 (ip), vehicle: saline sonified) was 120 % of control and the T/C (dose: 200.0 mg/kg/injection, schedule: Q01DX001 (ip), vehicle: saline with Tween-80) was 239 % of control and 196 % of control and 214 % of control. For the same compound, the T/C [3] was 95 % of control and 120 % of control.

`O=[N+]([O-])c1ccc(N2CCCC2)c2c1no[n+]2[O-]` was tested, and the T/C [1] was 101 % of control, the T/C [2] was 101 % of control and the T/C [3] was 108 % of control.

With `O=C(/C=C/c1ccc(Cl)cc1Cl)c1ccc(Cl)cc1` the T/C (dose: 100.0 mg/kg/injection, schedule: Q01DX009 (ip), vehicle: saline with Tween-80) was 104 % of control, the T/C [4] was 104 % of control and the T/C [5] was 100 % of control.

In the case of `CCOc1ccc(/C=N/NS(=O)(=O)c2ccccc2)cc1OC`, the T/C [4] is reported as 105 % of control and the T/C [5] is reported as 100 % of control.

With `O=[N+]([O-])c1ccccc1N=N/C(Cc1ccccc1)=N\Nc1ccccc1` the T/C (dose: 100.0 mg/kg/injection, schedule: Q01DX009 (ip), vehicle: Klucel (hydroxypropylcellulose) (HPC)) was 120 % of control and the T/C (dose: 200.0 mg/kg/injection, schedule: Q01DX009 (ip), vehicle: Klucel (hydroxypropylcellulose) (HPC)) was 115 % of control.

Source: PubChem BioAssay AID328 (DTP/NCI, 2004)
